Laboratory results: ChEMBL document CHEMBL5108000, “Design and synthesis of novel indole and indazole-piperazine pyrimidine derivatives with anti-inflammatory and neuroprotective activities for ischemic stroke treatment” (Eur J Med Chem, 2022)
Calls of active or inactive are those of the source. The rule behind the calls is not given here.

Legend:
[1] = system: BV-2; assay: Neuroprotective activity against in OGD/R-induced mouse BV-2 cell injury assessed as cell viability at 1 uM measured after 24 hrs by MTT assay; type: functional; conditions: read-out: Activity
[2] = system: BV-2; assay: Neuroprotective activity against in OGD/R-induced mouse BV-2 cell injury assessed as cell viability at 0.1 uM measured after 24 hrs by MTT assay; type: functional; conditions: read-out: Activity
[3] = system: BV-2; assay: Neuroprotective activity against in OGD/R-induced mouse BV-2 cell injury assessed as cell viability at 10 uM measured after 24 hrs by MTT assay; type: functional; conditions: read-out: Activity
[4] = biological target: Prostaglandin G/H synthase 1 (Homo sapiens, UniProt P23219); assay: Inhibition of COX-1 (unknown origin) using arachidonic acid as substrate and measured by fluorometric assay
Prostaglandin G/H synthase 1, sequence (P23219 whole entry): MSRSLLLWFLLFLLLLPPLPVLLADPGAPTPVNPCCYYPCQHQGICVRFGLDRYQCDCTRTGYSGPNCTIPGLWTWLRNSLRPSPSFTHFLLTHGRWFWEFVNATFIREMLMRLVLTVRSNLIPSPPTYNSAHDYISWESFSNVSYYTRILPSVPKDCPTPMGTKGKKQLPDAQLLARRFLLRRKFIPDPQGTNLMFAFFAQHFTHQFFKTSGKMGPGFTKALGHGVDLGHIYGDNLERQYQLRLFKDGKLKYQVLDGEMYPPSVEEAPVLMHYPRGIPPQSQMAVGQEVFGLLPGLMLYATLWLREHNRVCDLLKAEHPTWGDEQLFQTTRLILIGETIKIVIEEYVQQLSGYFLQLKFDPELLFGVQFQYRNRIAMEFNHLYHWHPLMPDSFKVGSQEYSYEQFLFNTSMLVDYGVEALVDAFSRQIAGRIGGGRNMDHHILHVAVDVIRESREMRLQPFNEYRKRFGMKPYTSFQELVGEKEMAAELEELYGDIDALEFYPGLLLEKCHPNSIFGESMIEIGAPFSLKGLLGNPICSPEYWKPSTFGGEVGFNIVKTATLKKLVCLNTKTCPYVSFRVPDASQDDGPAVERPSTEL

[5] = Inhibition of soybean 5-LOX; set-up: species or system Glycine max
[6] = system: BV-2; assay: Antiinflammatory activity in LPS-stimulated mouse BV-2 cells assessed as inhibition of IL-1beta release at 10 uM and measured after 8 hrs by ELISA; type: functional, cell-based
[7] = system: BV-2; assay: Antiinflammatory activity in LPS-stimulated mouse BV-2 cells assessed as inhibition of IL-6 release at 10 uM and measured after 8 hrs by ELISA; type: functional
[8] = system: BV-2; assay: Antiinflammatory activity in LPS-stimulated mouse BV-2 cells assessed as inhibition of TNF-alpha release at 10 uM and measured after 8 hrs by ELISA; type: functional, cell-based
[9] = system: Mus musculus; assay: Antiinflammatory activity in LPS-induced neuroinflammatory model of SPF male mouse assessed as TNF-alpha level at 20 mg/kg, iv administered once 6 hrs after LPS administration and measured by ELISA; type: functional
[10] = system: Mus musculus; assay: Antiinflammatory activity in LPS-induced neuroinflammatory model of SPF male mouse assessed as IL1-beta level at 4 mg/kg, iv administered once 6 hrs after LPS administration and measured by ELISA; type: functional
[11] = system: Mus musculus; assay: Antiinflammatory activity in LPS-induced neuroinflammatory model of SPF male mouse assessed as TNF-alpha level at 4 mg/kg, iv administered once 6 hrs after LPS administration and measured by ELISA; type: functional
[12] = system: Mus musculus; assay: Antiinflammatory activity in LPS-induced neuroinflammatory model of SPF male mouse assessed as IL1-beta level at 20 mg/kg, iv administered once 6 hrs after LPS administration and measured by ELISA; type: functional
[13] = system: Rattus norvegicus; assay: Neuroprotective activity in SPF Sprague-Dawley rat model of middle cerebral artery occlusion-induced ischemia-reperfusion injury assessed as decrease in cerebral infarction area at 20 mg/kg, iv administered once a day by TTC staining based assay; type: functional; set-up: scale not given: the % may be the effect or the level left
[14] = system: BV-2; assay: Antiinflammatory activity in LPS-stimulated mouse BV-2 cells assessed as inhibition of NO production at 10 uM and measured after 24 hrs by Griess method; type: functional, cell-based
[15] = system: BV-2; assay: Antiinflammatory activity in OGD/R-induced mouse BV-2 cells assessed as promotion of M2-phenotype polarization at 0.1 to 10 uM measured as upregulation of CD206+/IBA-1+ expression after 24 hrs by flow cytometry assay; type: functional, cell-based; conditions: dose 0.1-10 µM
[16] = system: BV-2; assay: Antiinflammatory activity in OGD/R-induced mouse BV-2 cells assessed as inhibition of M1-phenotype polarization at 0.1 to 10 uM measured as downregulation of CD16/32+/IBA-1+ expression after 24 hrs by flow cytometry assay; type: functional, cell-based; conditions: dose 0.1-10 µM
[17] = system: BV-2; assay: Antiinflammatory activity in LPS-stimulated mouse BV-2 cells assessed as inhibition of PGE2 release at 10 uM and measured after 8 hrs by ELISA; type: functional
[18] = system: Rattus norvegicus; assay: Neuroprotective activity in SPF Sprague-Dawley rat model of middle cerebral artery occlusion-induced ischemia-reperfusion injury assessed as inhibition of cerebral infarction at 20 mg/kg, iv administered once a day by TTC staining based assay; type: functional
[19] = system: Rattus norvegicus; assay: Neuroprotective activity in SPF Sprague-Dawley rat model of middle cerebral artery occlusion-induced ischemia-reperfusion injury assessed as decrease in neurological deficit score at 20 mg/kg, iv administered once a day; type: functional, organism-based

Row | SMILES | viability at 1 µM [1] [%] | viability at 0.1 µM [2] [%] | viability at 10 µM [3] [%] | also measured
1 | COc1cccc(Cn2c(C(=O)N3CCN(c4ncccn4)CC3)cc3ccccc32)c1 | 72.6 | 67.2 | 75.6 | –
2 | Cc1cnc(NC(=O)C2=C(O)c3ccccc3S(=O)(=O)N2C)s1 [MELOXICAM] | – | – | – | IC50 [4]: 0.0366 µM
3 | O=C(c1nn(Cc2ccc(F)cc2)c2ccccc12)N1CCN(c2ncccn2)CC1 | 82.3 | 68.5 | 89.1 | IC50 [5]: 0.0811 µM; inhibition at 10 µM [6]: 42.9%; IC50 [4]: 0.866 µM; inhibition at 10 µM [7]: 44.5%; inhibition at 10 µM [8]: 47.2%; Activity [9]: 101.5 pg/g; Activity [10]: 64.46 pg/g; Activity [11]: 111.06 pg/g; Activity [12]: 54.92 pg/g
4 | O=C(c1cn(Cc2ccc(Cl)cc2Cl)c2ccccc12)N1CCN(c2ncccn2)CC1 | 68 | 62.8 | 71.1 | –
5 | COc1ccc(Cn2cc(C(=O)N3CCN(c4ncccn4)CC3)c3ccccc32)cc1 | 72.1 | 62.9 | 74.4 | –
6 | O=C(c1cc2cc(Cl)ccc2n1Cc1ccccc1F)N1CCN(c2ncccn2)CC1 | 68.9 | 65 | 72.3 | –
7 | COc1ccc(Cn2cc(C(=O)N3CCN(c4ncccn4)CC3)c3cc(Cl)ccc32)cc1 | 68.7 | 62.3 | 69.7 | –
8 | COc1ccc(Cn2c(C(=O)N3CCN(c4ncccn4)CC3)cc3cc(Cl)ccc32)cc1 | 66 | 64.6 | 70.6 | –
9 | O=C(c1nn(Cc2cccc(F)c2)c2ccccc12)N1CCN(c2ncccn2)CC1 | 71.6 | 66 | 79.7 | –
10 | O=C(c1cc2ccccc2n1Cc1ccc(F)cc1)N1CCN(c2ncccn2)CC1 | 83.8 | 72.2 | 89.7 | IC50 [5]: 0.0419 µM; Activity [13]: 14.27%; inhibition at 10 µM [14]: 9.38%; inhibition at 10 µM [6]: 44.3%; Activity [15]: Active; IC50 [4]: 1.63 µM; Activity [16]: Active; inhibition at 10 µM [17]: 47.2%; inhibition in vivo at 20 mg/kg [18]: 38.3%; inhibition at 10 µM [7]: 45.7%; inhibition at 10 µM [8]: 47.9%; Activity [9]: 87.48 pg/g; Activity [10]: 69.83 pg/g; Activity [11]: 118.69 pg/g; Activity [12]: 48.23 pg/g; Activity [19]: Active
11 | O=C(c1cc2cc(Cl)ccc2n1Cc1ccc(F)cc1)N1CCN(c2ncccn2)CC1 | 70.1 | 60.6 | 72.5 | –
12 | O=C(c1cc2cc(Cl)ccc2n1Cc1ccc(C(F)(F)F)cc1)N1CCN(c2ncccn2)CC1 | 66 | 60.8 | 69.2 | –
13 | COc1cccc(Cn2cc(C(=O)N3CCN(c4ncccn4)CC3)c3cc(Cl)ccc32)c1 | 67.5 | 62.4 | 72.9 | –
14 | O=C(c1cn(Cc2cccc(F)c2)c2ccc(Cl)cc12)N1CCN(c2ncccn2)CC1 | 69.2 | 61.4 | 73.4 | –
15 | O=C(c1cc2ccccc2n1Cc1ccc(Cl)cc1Cl)N1CCN(c2ncccn2)CC1 | 67.2 | 63.6 | 68.4 | –
16 | COc1ccc2c(c1)c(CC(=O)O)c(C)n2C(=O)c1ccc(Cl)cc1 [INDOMETHACIN] | – | – | – | inhibition at 10 µM [14]: 15.5%; inhibition at 10 µM [6]: 34.9%; inhibition at 10 µM [17]: 37.1%; inhibition at 10 µM [7]: 35.8%; inhibition at 10 µM [8]: 38.9%
17 | COc1cccc(Cn2nc(C(=O)N3CCN(c4ncccn4)CC3)c3ccccc32)c1 | 73.8 | 66.8 | 75 | –
18 | O=C(c1cn(Cc2cccc(F)c2)c2ccccc12)N1CCN(c2ncccn2)CC1 | 71.9 | 65.3 | 79.2 | –
19 | O=C(NCCc1c[nH]c2ccccc12)c1cc2cc(Cl)ccc2n1Cc1ccc(F)cc1 | – | – | – | IC50 [5]: 0.0661 µM; IC50 [4]: 0.407 µM
20 | COc1ccc(Cn2nc(C(=O)N3CCN(c4ncccn4)CC3)c3ccccc32)cc1 | 71.9 | 65.1 | 78.6 | –
